Results taken from US7135572B2 (CJ Corp, priority 2001, dated 2006).

Tests used:
cyclooxygenase-1 = target: T1, cyclooxygenase-1 (Homo sapiens, UniProt P23219); assay: Inhibition of cyclooxygenase-1 in U-937 cells (PGE2 quantitation); format: cell-based; conditions: for Inhibitory effects of cyclooxygenase (COX): COX-1: U-937 cells
T1 construct: The cultured U-937 (humane lymphoma cell, obtained from Korean cell line bank) was centrifuged to collect the pellet; endogenous in cells; host or cells: U-937 (human lymphoma cell line, Korean cell line bank)
T1 sequence (P23219 24-599): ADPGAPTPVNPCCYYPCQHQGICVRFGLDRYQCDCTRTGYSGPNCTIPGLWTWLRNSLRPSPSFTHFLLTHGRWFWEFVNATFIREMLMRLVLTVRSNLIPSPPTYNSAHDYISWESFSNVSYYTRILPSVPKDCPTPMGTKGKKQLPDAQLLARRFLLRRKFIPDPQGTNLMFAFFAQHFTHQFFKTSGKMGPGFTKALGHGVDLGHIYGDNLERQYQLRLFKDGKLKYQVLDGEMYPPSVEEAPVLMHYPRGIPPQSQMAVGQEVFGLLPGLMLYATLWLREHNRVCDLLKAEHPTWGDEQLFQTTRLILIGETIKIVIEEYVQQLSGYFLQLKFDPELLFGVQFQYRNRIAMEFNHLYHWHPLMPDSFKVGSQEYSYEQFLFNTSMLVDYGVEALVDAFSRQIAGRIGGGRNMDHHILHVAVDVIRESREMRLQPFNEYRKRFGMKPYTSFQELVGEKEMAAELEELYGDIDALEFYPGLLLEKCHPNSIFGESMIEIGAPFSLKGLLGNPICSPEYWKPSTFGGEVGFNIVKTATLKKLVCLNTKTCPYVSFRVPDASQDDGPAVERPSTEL
Procedure: (§1) In order to investigate pharmacologically the selective inhibition activity against cyclooxygenase-2 enzyme, the inhibitive effects against cyclooxygenase-1 and cyclooxygenase-2 were measured by two methods as follows.
Then, the pellet was diluted with 1×HBSS(Hank's balanced salt solutin) at the concentration of 1×10^6 cells/ml, and 1 ml of them was transferred into each well of 12-well plates, and then dissolved with DMSO. 5μl of the diluted sample solution, and 5μl of DMSO vehicle were added therein and mixed, and the mixture was cultured at 37° C. in Co2 incubator for 15 minutes. Arachidonic acid as a substrate was dissolved in ethanol to prepare a stock solution with a concentration of 10 mM, followed by diluting with 1×HBSS to prepare the solution of 1 mM. 10 μl of 1 mM Arachidonic acid solution was added to each of the treated wells, and the mixture was cultured at 37° C. in CO2 incubator for 30 minutes. The cell solution of each well was collected in the centrifuge tube and was centrifuged at 4° C. for 5 minutes at 10,000 rpm. As PGE2 existed in the supernatant separated from collected cell, the concentration of PGE2 was quantitated by using monoclonal kit from Cayman Chemicals, and the concentration of samples and vehicle were compared to estimate the inhibition ratio (%) of each compound against cyclooxygenase-1. Ultimately, the inhibition effect against the cyclooxygenase-1 enzyme was obtained from the result.

cyclooxygenase-2 = target: T2, cyclooxygenase-2 (Mus musculus, UniProt Q05769); assay: Inhibition of cyclooxygenase-2 in Raw 264.7 cells treated with interferon γ and LPS (PGE2 EIA); format: cell-based; conditions: for Inhibitory effects of cyclooxygenase (COX): COX-2: Raw 264.7 cells
T2 construct: endogenous in cells; host or cells: Raw 264.7 (Korean cell line bank), aspirin-pretreated, induced with interferon gamma and LPS
T2 sequence (Q05769 18-604): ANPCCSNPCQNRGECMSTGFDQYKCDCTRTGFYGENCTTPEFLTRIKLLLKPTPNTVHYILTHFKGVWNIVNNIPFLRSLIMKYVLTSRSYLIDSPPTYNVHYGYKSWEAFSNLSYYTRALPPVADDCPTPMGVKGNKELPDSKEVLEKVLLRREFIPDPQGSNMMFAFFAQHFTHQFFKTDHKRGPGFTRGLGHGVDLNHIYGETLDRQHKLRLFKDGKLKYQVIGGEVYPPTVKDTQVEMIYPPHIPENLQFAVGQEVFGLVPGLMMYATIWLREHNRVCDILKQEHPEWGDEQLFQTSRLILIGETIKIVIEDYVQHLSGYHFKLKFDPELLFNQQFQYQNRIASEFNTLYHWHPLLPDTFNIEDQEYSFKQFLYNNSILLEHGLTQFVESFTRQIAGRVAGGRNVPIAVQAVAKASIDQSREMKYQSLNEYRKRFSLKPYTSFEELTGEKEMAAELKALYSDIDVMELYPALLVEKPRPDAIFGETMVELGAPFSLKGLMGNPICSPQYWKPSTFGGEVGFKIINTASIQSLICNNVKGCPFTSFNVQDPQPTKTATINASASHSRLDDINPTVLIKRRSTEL
Procedure: as §1
And then, each samples were replaced with new media and cultured for 30 minutes. In addition, the samples was treated with 100 units/ml of interferon Υ and 100 ng/ml of lipopolysaccharide(LPS), and cultured for 18 hours. Then, the media was transferred to other tubes and the PGE 2 was quantitated by using EIA kit from Cayman Chemicals.

| Inhibitory effects of cyclooxygenase (COX): COX-1 (cyclooxygenase-1; 3 μM) [% inhibition] | Inhibitory effects of cyclooxygenase (COX): COX-1 (cyclooxygenase-1; 10 μM) [% inhibition] | Inhibitory effects of cyclooxygenase (COX): COX-1 (cyclooxygenase-1; 30 μM) [% inhibition] | inhibition effect against cyclooxygenase-1 compared with Celecoxib (in words) (cyclooxygenase-1; same condition as Celecoxib) | Inhibitory effects of cyclooxygenase (COX): COX-2 (cyclooxygenase-2; 30 nM) [% inhibition] | Inhibitory effects of cyclooxygenase (COX): COX-2 (cyclooxygenase-2; 100 nM) [% inhibition] | Inhibitory effects of cyclooxygenase (COX): COX-2 (cyclooxygenase-2; 300 nM) [% inhibition] | selectivity of cyclooxygenase-2 compared with the comparative substance (in words) (cyclooxygenase-2; COX-2 versus COX-1) | inhibition effect against cyclooxygenase-2 compared with Celecoxib (in words) (cyclooxygenase-2; low concentration, same condition as Celecoxib) | Structure (SMILES) |
| --- | --- | --- | --- | --- | --- | --- | --- | --- | --- |
| 12.8 | 20.4 | 28.9 | much lower level | 72.1 | 99.8 | 99.9 | better than any other substances | more excellent | Cc1nc(-c2ccccc2)n(-c2ccc(S(N)(=O)=O)cn2)n1 [Example 14, 6-(3-methyl-5-phenyl-[1,2,4]triazole-1-yl)-pyridine-3-sulfonic acid amide] |
| 35.7 | 41.0 | 46.9 | – | 27.1 | 28.8 | 38.9 | – | – | Cc1nc(-c2ccc(F)cc2)n(-c2ccc(S(N)(=O)=O)cn2)n1 [Example 15, 6-[5-(4-fluoro-phenyl)-3-methyl-[1,2,4]triazole-1-yl]-pyridine-3-sulfonic acid amide] |
| 24.5 | 43.2 | 55.1 | – | 32.4 | 34.1 | 85.2 | – | – | Cc1nc(-c2ccc(Cl)cc2)n(-c2ccc(S(N)(=O)=O)cn2)n1 [Example 16, 6-[5-(4-chloro-phenyl)-3-methyl-[1,2,4]triazole-1-yl]-pyridine-3-sulfonic acid amide] |
| 5.6 | 28.7 | 32.7 | – | 47.8 | 66.9 | 78.2 | – | – | Cc1nc(-c2ccc(Br)cc2)n(-c2ccc(S(N)(=O)=O)cn2)n1 [Example 17, 6-[5-(4-bromo-phenyl)-3-methyl-[1,2,4]triazole-1-yl]-pyridine-3-sulfonic acid amide] |
| 44.7 | 56.7 | 75.6 | – | 43.9 | 48.8 | 67.8 | – | – | Cc1nc(-c2cccc(Cl)c2)n(-c2ccc(S(N)(=O)=O)cn2)n1 [Example 21, 6-[5-(3-chloro-phenyl)-3-methyl-[1,2,4]triazole-1-yl]-pyridine-3-sulfonic acid amide] |
| 15.1 | 26.8 | 31.1 | – | 27.3 | 29.8 | 36.2 | – | – | COc1cc(OC)cc(-c2nc(C)nn2-c2ccc(S(N)(=O)=O)cn2)c1 [Example 22, 6-[5-(3,5-dimethoxy-phenyl)-3-methyl-[1,2,4]triazole-1-yl]-pyridine-3-sulfonic acid amide] |
| 1.3 | 40.8 | 71.5 | – | 29.7 | 38.0 | 64.4 | – | – | Cc1nc(-c2ccccc2)n(-c2ccc(S(C)(=O)=O)cc2)n1 [Example 24, 1-(4-methanesulfony-phenyl)-3-methyl-5-phenyl-1H-[1,2,4]triazole] |
| 77.6 | 79.8 | 82.1 | – | 27.3 | 29.8 | 36.2 | – | – | Cc1nc(-c2ccc(Br)cc2)n(-c2ccc(S(C)(=O)=O)cc2)n1 [Example 30, 5-(4-bromo-phenyl)-1-(4-methanesulfonyl-phenyl)-3-methyl-1H-[1,2,4]triazole] |

Further lines, the compound ahead of its results:

| Structure (SMILES) | Inhibitory effects of cyclooxygenase (COX): COX-1 (cyclooxygenase-1; 3 μM) [% inhibition] | Inhibitory effects of cyclooxygenase (COX): COX-1 (cyclooxygenase-1; 10 μM) [% inhibition] | Inhibitory effects of cyclooxygenase (COX): COX-1 (cyclooxygenase-1; 30 μM) [% inhibition] | inhibition effect against cyclooxygenase-1 compared with Celecoxib (in words) (cyclooxygenase-1; same condition as Celecoxib) | Inhibitory effects of cyclooxygenase (COX): COX-2 (cyclooxygenase-2; 30 nM) [% inhibition] | Inhibitory effects of cyclooxygenase (COX): COX-2 (cyclooxygenase-2; 100 nM) [% inhibition] | Inhibitory effects of cyclooxygenase (COX): COX-2 (cyclooxygenase-2; 300 nM) [% inhibition] | selectivity of cyclooxygenase-2 compared with the comparative substance (in words) (cyclooxygenase-2; COX-2 versus COX-1) | inhibition effect against cyclooxygenase-2 compared with Celecoxib (in words) (cyclooxygenase-2; low concentration, same condition as Celecoxib) |
| --- | --- | --- | --- | --- | --- | --- | --- | --- | --- |
| Cc1ccc(-c2nc(C)nn2-c2ccc(S(N)(=O)=O)cn2)cc1 [Example 18, 6-(3-methyl-5-p-toly-[1,2,4]triazole-1-yl)-pyridine-3-sulfonic acid amide] | 50.4 | 62.9 | 75.1 | – | 26.4 | 37.5 | 46.5 | – | – |
| COc1ccc(-c2nc(C)nn2-c2ccc(S(N)(=O)=O)cn2)cc1 [Example 19, 6-[5-(4-methoxy-phenyl)-3-mehtyl-[1,2,4]triazole-1-yl]-pyridine-3-sulfonic acid amide] | 46.9 | 61.0 | 77.6 | – | 34.8 | 43.1 | 69.5 | – | – |
| Cc1nc(-c2cccc(F)c2)n(-c2ccc(S(N)(=O)=O)cn2)n1 [Example 20, 6-[5-(3-fluoro-phenyl)-3-mehtyl-[1,2,4]triazole-1-yl]-pyridine-3-sulfonic acid amide] | 27.2 | 31.6 | 34.7 | – | 30.2 | 57.8 | 74.0 | – | – |
| Cc1nc(-c2ccc(F)cc2)n(-c2ccc(S(C)(=O)=O)cc2)n1 [Example 26, 5-(4-fluoro-phenyl)-1-(4-methanesulfonyl-phenyl)-3-methyl-1H-[1,2,4]triazole] | 42.0 | 51.2 | 55.1 | – | 20.1 | 47.7 | 64.0 | – | – |
| Cc1nc(-c2ccc(Cl)cc2)n(-c2ccc(S(C)(=O)=O)cc2)n1 [Example 28, 5-(4-chloro-phenyl)-1-(4-methanesulfonyl-phenyl)-3-methyl-1H-[1,2,4]triazole] | 72.9 | 73.1 | 85.4 | – | 33.9 | 38.8 | 57.8 | – | – |
